Where a SMILES comes first, the peptide text is derived from it. Bridges are numbered along the chain shown (N, C = ends). Roman numbers before positions name the chains, in order. Where no end group is shown, it is not given here. [ ]: non-standard residue; d: D form. Aib = CC(C)(N)C(=O)O; Ahx = NCCCCCC(=O)O
Tests used:
S100B = biological target: T1, S100B (Homo sapiens, UniProt P04271); assay: Fluorescence anisotropy binding of N-terminal fluorescein labeled peptides to S100B
T1 sequence (P04271 1-92): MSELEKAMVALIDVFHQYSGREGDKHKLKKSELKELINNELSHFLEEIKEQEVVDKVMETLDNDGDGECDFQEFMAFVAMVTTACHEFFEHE
From the text: FIG. 2. (A) Table of some representative peptides synthesized which respectively include pM-53 (SEQ ID No. 6), pBN-53 (SEQ ID No. 7), pBDC-53 (SEQ ID No. 8), pBM-TRTK (SEQ ID No. 2), pBDC-TRTK (two SEQ ID No. 2's cross-linked together with BMH), and pBBD-TRTK (SEQ ID No. 11) and their dissociation constants. Binding isotherm of branch dimeric SEQ ID No. 3 (i.e., SEQ ID No. 11) with (B) S-100B and (C) S100P and (D) branch dimeric SEQ ID No. 5 (i.e., SEQ ID No. 12) with S100B. Fluorescein labeled, 5 nM branch dimeric SEQ ID No. 3 (i.e., SEQ ID No. 11) or branch dimeric SEQ ID No. 5 (i.e., SEQ ID No. 12) was titrated with increasing concentrations of S100B or S100P in 50 mM Tris-HCl buffer, pH 7.5, containing 50 mM NaCl and 10 mM CaCl2 at ambient temperatures which was 25±1 degree C. Anisotropy was determined at each point. The each point is averaging of at least three independent experiments. The line is best fit to a single site binding equation given in description of the invention.
Binding affinity of aib substituted p53 (SEQ ID No. 7) (and all other peptides) was estimated by fluorescence anisotropy using N-terminal fluorescein labeled peptides. […] Since S100B is a dimer, one possible way to enhance the binding is to synthesize a bivalent molecule, which can simultaneously bind to two subunits. SEQ ID No. 7 was dimerized with a properly designed cross-linker through inserted cysteine residues (SEQ ID No. 8). The C-terminal side of the two peptides (bound to two different subunits) comes fairly close and is separated by shallow groove allowing a cross-linker to fit. The length of the cross-linker was chosen such that it spans the separation between the two cysteine residues in the predicted structure.
Binding data of the several of these peptides are shown in FIG. 2 (A) and some of the corresponding binding isotherms are shown FIG. 2(B-D). […] Also synthesized was a mutant branched peptide (SEQ ID No. 12 which is a lysine branch dimeric form of SEQ ID No. 5) bearing two mutations in the interacting residues. […] This peptide will be used as a control in the cellular experiments to be described later.

[1] = Toxicity in mice, i.v. treatment; type: in vivo, mouse
Experimental: The effect of SEQ ID No. 10 was tested in a syngenic mouse model of melanoma. […] Histopathology of some key target organs after 8 days of treatment was normal, indicating no significant toxicity. […] Immuno-histochemistry of growth marker PCNA indicates complete loss of this antigen in the residual tumor mass upon treatment, indicating complete loss of proliferating cells (FIG. 7(C)).
Experiments were carried out under protocols approved by the Institutional Animal Ethics Committee and institutional guidelines for the proper use of animals in research were followed. National guidelines had been followed. C57BL/6J female mice (mean initial weight, 20 g) were kept in one mice in one cage at 19° C. to 23° C. with a 12 hour light/12 hour dark cycle. They had free access to water and food. To generate tumor, 1×10^6 B16F10 cells were mixed with Matrigel (BD bioscience) and inoculated S.C. in the right flank of 6 week-old mice. Tumors (typically 2 mm in diameter) were palpable 5 days after subcutaneous injection. Peptide treatments (50 mg/kg body weight) were administered by intravenous tail vein injection on the day tumors became apparent (day 0) and then days 1, 2, 3, 4, 5, 6 and 7. Control mice were treated only with saline vehicle. Mice were weighted, and tumor volumes were calculated with the following formula: π/6×larger diameter×(smaller diameter)^2.

SK-MEL-5 cells = type: cell-based; conditions: 18 h
Experimental: FIG. 4. (A) Assay of cell viability using incorporation of ^3H-thymidine after treatment with different concentrations of SEQ ID No. 10 for 18 hrs. (B) Flow cytometry of SK-MEL5 cells before and after treatment with 10 microM SEQ ID No. 10 with DR6 tags at two branches, using Annexin V and Propidium Iodide (lower panel) and forward/side scatter (upper panel).
The effect of SEQ ID No. 10 on viability was also measured by ^3H thymidine uptake (FIG. 4 (A)). […] The apoptosis of SK-Mel5 cells was quantitated using flow cytometry. 49% of cells were determined to be apoptotic and 11% necrotic at 2 hrs using annexin V stain. Corresponding figures for 6 hrs were 57% and 14%, respectively (FIG. 4(B)). From the results presented here and analysis of growth promoting pathways described later-S100B appears to be a generalized growth promoter, when over-expressed.

SK-MEL5 cells = assay: Phase contrast microscopy of SK-MEL5 cells (shape change, blebbing, apoptosis); type: cell-based
From the text: FIG. 3. Phase contrast microscopy of SK-MEL5 cells (A) 2 hrs after treatment with 10 microM SEQ ID No. 10; (B) 18 hrs after treatment with 20 microM branch dimeric SEQ ID No. 5 (i.e., SEQ ID No. 12); (C) 2 hr after treatment with branch dimeric SEQ ID No. 3 (i.e., SEQ ID No. 11) (without the cell penetration tag) and (D) control.
FIG. 6. (A) Phase contrast microscopy of SK-MEL5 cells (Upper panel) 10 microM SEQ ID No. 10 with DR6 tags at two branches (Lower panel), and 10 microM pBBDR-TRTK (i.e., SEQ ID No. 10), pre-treated with 10 microM pifithrin-micro, 1 hr after treatment (Upper panel). (B) Confocal microscopic images of merged p53 (green) and mitotracker (red), Top untreated and bottom, 1 h after treatment with SEQ ID No. 10.
The effect of all the synthesized peptides on several melanoma cell lines which are known to over-express S100B was investigated.
Given the rapidity of apoptosis initiation, the examination of the recently reported direct mitochondrial translocation pathway was also done by the method if Vaseva and Moll, 2009. It has been reported that a small molecule pifithrin-micro blocks this pathway without affecting the canonical transcription-dependent pathway of p53 initiated apoptosis and a close analog, pifithrin-α blocks the canonical pathway without affecting the direct mitochondrial pathway (Strom et al., 2006). […]

[2] = upto 50 mg/Kg body weight, i.v.

With “QSTBRHBKLMFKTBG (QST[Aib]RH[Aib]KLMFKT[Aib]G-NH2) [SEQ ID No. 7, P53 Aib substituted monomer peptide]” the “binding to S100B relative to parent peptide, in words” value (S100B; fluorescence anisotropy) was “somewhat stronger than the unmodified peptide” and the “dissociation constant for S100B, in words” value (S100B; fluorescence anisotropy) was “micromolar range”.
With `CC[C@H](C)[C@H](NC(=O)[C@H](CCCCN)NC(=O)[C@@H](NC(=O)[C@H](CCCNC(=N)N)NC(=O)[C@@H](NC(=O)[C@@H](CCCNC(=N)N)NC(=O)[C@@H](CCCNC(=N)N)NC(=O)[C@@H](CCCNC(=N)N)NC(=O)[C@@H](CCCNC(=N)N)NC(=O)[C@@H](CCCNC(=N)N)NC(=O)[C@H](N)CCCNC(=N)N)[C@@H](C)O)[C@@H](C)O)C(=O)N[C@@H](CC(=O)O)C(=O)N[C@@H](Cc1c[nH]c2ccccc12)C(=O)NC(C)(C)C(=O)N[C@@H](CCCCN)C(=O)N[C@H](C(=O)N[C@@H](CC(C)C)C(=O)NC(C)(C)C(=O)N[C@@H](CCCCN)C(=O)NCCCCCC(=O)NCCCC[C@H](NC(=O)CCCCCNC(=O)[C@H](CCCCN)NC(=O)C(C)(C)NC(=O)[C@H](CC(C)C)NC(=O)[C@@H](NC(=O)[C@H](CCCCN)NC(=O)C(C)(C)NC(=O)[C@H](Cc1c[nH]c2ccccc12)NC(=O)[C@H](CC(=O)O)NC(=O)[C@@H](NC(=O)[C@H](CCCCN)NC(=O)[C@@H](NC(=O)[C@H](CCCNC(=N)N)NC(=O)[C@@H](NC(=O)[C@@H](CCCNC(=N)N)NC(=O)[C@@H](CCCNC(=N)N)NC(=O)[C@@H](CCCNC(=N)N)NC(=O)[C@@H](CCCNC(=N)N)NC(=O)[C@@H](CCCNC(=N)N)NC(=O)[C@H](N)CCCNC(=N)N)[C@@H](C)O)[C@@H](C)O)[C@@H](C)CC)[C@@H](C)CC)C(N)=O)[C@@H](C)CC` [SEQ ID No. 10, ^DR6 TRTKIDWBKILBKAhxKAhxKBLIKBWDIKTRT-^DR6] the “histopathology of key target organs” value ([1]; after 8 days of treatment, 50 mg/Kg) was “normal”, the lethality [1, 2] was “non-lethal” and the toxicity [1, 2] was “no demonstrable toxicity”. For the same compound, the IC50 (SK-MEL-5 cells) was < 2 µM.
In the case of `NS(=O)(=O)C#Cc1ccccc1` [pifithrin-μ, reference compound], the “effect of pifithrin-μ on peptide-induced apoptosis” value (SK-MEL5 cells; 10 microM pifithrin pre-treatment, 10 microM peptide, 1 hr) is reported as “blebbings are not seen”.
With “SEQ ID No. 2: pBM-TRTK dimerised through cysteine residues with BMH cross-linker (TRTKIDW[Aib]KIL[Aib]GGGCG-NH2; also: dimer through Cys via BMH crosslinker)” the “binding to S100B relative to parent peptide, in words” value (S100B; fluorescence anisotropy) was “approximately an order of magnitude tighter binding”.
In the case of `CC[C@H](C)[C@H](NC(=O)[C@H](CCCCN)NC(=O)C(C)(C)NC(=O)[C@H](C)NC(=O)[C@H](CC(=O)O)NC(=O)[C@H](C)NC(=O)[C@H](CCCCN)NC(=O)[C@@H](NC(=O)[C@H](CCCNC(=N)N)NC(=O)[C@@H](N)[C@@H](C)O)[C@@H](C)O)C(=O)N[C@@H](CC(C)C)C(=O)NC(C)(C)C(=O)N[C@@H](CCCCN)C(=O)NCCCCCC(=O)NCCCC[C@H](NC(=O)CCCCCNC(=O)[C@H](CCCCN)NC(=O)C(C)(C)NC(=O)[C@H](CC(C)C)NC(=O)[C@@H](NC(=O)[C@H](CCCCN)NC(=O)C(C)(C)NC(=O)[C@H](C)NC(=O)[C@H](CC(=O)O)NC(=O)[C@H](C)NC(=O)[C@H](CCCCN)NC(=O)[C@@H](NC(=O)[C@H](CCCNC(=N)N)NC(=O)[C@@H](N)[C@@H](C)O)[C@@H](C)O)[C@@H](C)CC)C(N)=O` [SEQ ID No. 12, TRTKADABKILBKAhxKAhxKBLIKBADAKTRT-(I5A,W7A)] (I: H-TRTKADA[Aib]KIL[Aib]K[Ahx]K-NH2 / II: H-TRTKADA[Aib]KIL[Aib]K[Ahx]; amide I:15-II:C; N-terminus assumed), the Kd (S100B; fluorescence anisotropy, 50 mM Tris-HCl pH 7.5, 50 mM NaCl, 10 mM CaCl2, 25 degree C, read-out: Kd (dissociation constant) for S100B) is reported as 0.135 ± 0.0185 µM.
For “SEQ ID No. 2 with DR6 tags at two branches: pBM-TRTK dimerised with BMH crosslinker and tagged with hexa-arginine (TRTKIDW[Aib]KIL[Aib]GGGCG-NH2; also: dimer through Cys via BMH crosslinker, DR6 (hexa-arginine) tags on two branches, place not given here)”, the “potency in inducing apoptosis relative to SEQ ID No. 10” value (SK-MEL5 cells; SK-MEL5) was “nearly as potent as SEQ ID No. 10”.
For “SEQ ID No. 8: GCGG Modified pBM53 dimerised with BMH crosslinker; monomer QSTBRHBKLMFKTBGGGCG (QST[Aib]RH[Aib]KLMFKT[Aib]GGGCG-NH2; also: dimer via BMH crosslinker)”, the “increase in affinity for S100B upon dimerization” value (S100B; cross-linked dimer versus monomer SEQ ID No. 7) was “approximately 15 fold”.

Source: US9408888B2, “High affinity bivalent helically constrained peptide against cancer” (COUNCIL OF SCIENTIFIC AND INDUSTRIAL RESEARCH, priority 2011, dated 2016)
